What follows are molecules tested against T1, human DP2 receptor (Homo sapiens, UniProt Q9Y5Y4) (assay: Prostaglandin D2 binding inhibition assay (scintillation proximity assay, 3H PGD2, membranes of transfected CHO cells)). Conditions: SPA, 5.5 nM 3H PGD2, CHO-K1 FLP-In human DP2 membranes; upper limit determinable 30 μM; read-out: IC50 ranges for inhibition of PGD2 binding to human DP2.
T1 construct: expressed in transfected cells; host or cells: CHO-K1 FLP-In (Invitrogen, catalog no. R758-07), stably transfected
T1 sequence (Q9Y5Y4 1-395): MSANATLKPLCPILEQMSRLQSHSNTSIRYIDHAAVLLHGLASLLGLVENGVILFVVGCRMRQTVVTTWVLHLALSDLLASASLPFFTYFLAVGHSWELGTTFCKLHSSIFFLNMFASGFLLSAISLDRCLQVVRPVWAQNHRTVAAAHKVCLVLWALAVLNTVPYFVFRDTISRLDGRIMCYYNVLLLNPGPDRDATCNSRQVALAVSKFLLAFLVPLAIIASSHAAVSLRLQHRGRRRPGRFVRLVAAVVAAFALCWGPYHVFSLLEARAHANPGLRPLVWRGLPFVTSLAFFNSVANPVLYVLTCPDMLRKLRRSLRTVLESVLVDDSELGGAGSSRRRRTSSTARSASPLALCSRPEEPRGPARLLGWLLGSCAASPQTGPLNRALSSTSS
Description: The ability of compounds to inhibit binding of prostaglandin D2 (PGD2) to the human DP2 receptor was measured using a scintillation proximity assay (SPA). Chinese Hamster Ovary FLP-In cell lines (CHO-K1 FLP-In, Invitrogen, catalog no. R758-07) were stably transfected with the human DP2 gene (Genebank: AY507142). Cell lines were grown in suspension in EX-CELL 302 CHO Serum-free medium (Sigma, catalog no. 14324C) supplemented with 1% Fetal Bovine Serum (Invitrogen no. 10099-141), 2 mM L-glutamine (Invitrogen, catalog no. 25030-081) and 0.5 mg/ml Hygromycin B (Invitrogen, catalog no. 10687-010). Cells were collected by centrifugation in a Beckman Coulter Allegra X-12R centrifuge at 150×g for 5 minutes at room temperature.
Membranes from transfected cells were isolated for binding assays. Cell pellets containing approximately 2×10^9 cells were resuspended in 35 ml of cold membrane homogenization buffer (10 mM Tris (Sigma, catalog no. T2663), 1 mM EDTA (Fluka BioChemika no. 03690), and 70 μl of protease inhibitor cocktail (Sigma, catalog no. P8340)). Cells were homogenized with 30 strokes of a dounce homogenizer (Kontes, catalog no. 885303-0040), and the solution centrifuged at 200×g for 10 minutes. The supernatant was transferred to a 50 ml Oakridge tube (Beckman, catalog no. 357000) and centrifuged in a Beckman Coulter Avanti J-26×PI centrifuge with a JA30.50 rotor at 81,000×g for 1 hour at 15° C. The pellet was resuspended in membrane storage buffer (50 mM Tris (Sigma, catalog no. T2663), 2.5 mM EDTA (Fluka BioChemika no. 03690), 5 mM magnesium chloride (Sigma, catalog no. M1028), 100 mg/ml sucrose (Sigma, catalog no. 50389) and a 1:500 dilution of protease inhibitor cocktail (Sigma, catalog no. P8340)) and the total protein was quantitated using a BCA protein measurement kit (Pierce, catalog no. 23225). Aliquots were frozen at −80° C. until used. Compounds were tested for their ability to inhibit PGD2 binding to the purified membranes. 5 μg of the purified membranes, 0.25 mg of wheat germ agglutinin PVT SPA beads (GE Healthcare, catalog no. RPNQ0060) and 5.5 nM of ^3H PGD2 (PerkinElmer, catalog no. NET-616) were mixed in assay buffer ((50 mM Tris (Sigma, catalog no. T2663), 10 mM magnesium chloride (Sigma, catalog no. M1028), 100 mM sodium chloride (Sigma, catalog no. S6546) and 0.1% bovine serum albumin (Sigma, catalog no. A2153)). Using a Multidrop bulk dispenser, 75 μl of the assay mixture was dispensed in Optiplates (PerkinElmer, catalog no. 6007299) containing the compounds to be tested. After a 60 minute incubation period at room temperature, the plates were read on a PerkinElmer Topcount NXT HTS, and individual wells were quantitated as counts per minute (CPM). Data were expressed as a percent of the difference between the maximum and minimum responses. IC50 values (the concentration of compound producing 50% of the maximal response) were determined using a two-parameter non-linear regression algorithm analyzed using CambridgeSoft Bioassay software. Table 2 gives the range of IC50 values for claimed compounds in the binding assay.

**Q.** For `CS(=O)(=O)c1ccc(S(=O)(=O)N2CCC(n3c(=O)n(CC(=O)O)c4cccnc43)CC2)cc1` [Compound 90, 2-(3-(1-(4-(methylsulfonyl)phenyl-sulfonyl)piperidin-4-yl)-2-oxo-2,3-dihydro-1H-imidazo[4,5-b]pyridin-1-yl)acetic acid], which IC50 is on record?
**A.** > 30000 nM

**Q.** How did the IC50 turn out when `CS(=O)(=O)c1cccc(S(=O)(=O)N2CCC(n3c(=O)n(CC(=O)O)c4cccnc43)CC2)c1` [Compound 66, 2-(3-(1-(3-(methylsulfonyl)phenyl-sulfonyl)piperidin-4-yl)-2-oxo-2,3-dihydro-1H-imidazo[4,5-b]pyridin-1-yl)acetic acid] was run?
**A.** 1000 to 10000 nM

**Q.** For `O=C(O)Cn1c(=O)n([C@@H]2CCN(S(=O)(=O)c3ccc(Cl)cc3Cl)C2)c2ncccc21` [Compound 102, (R)-2-(3-(1-(2,4-dichlorophenylsulfonyl)pyrrolidin-3-yl)-2-oxo-2,3-dihydro-1H-imidazo[4,5-b]pyridin-1-yl)acetic acid], which IC50 is on record?
**A.** < 1000 nM

**Q.** `O=C(O)Cn1c(=O)n(C2CCN(S(=O)(=O)c3ccccc3OC(F)(F)F)CC2)c2ncccc21` [Compound 33, 2-(2-oxo-3-(1-(2-(trifluoromethoxy)phenylsulfonyl)piperidin-4-yl)-2,3-dihydro-1H-imidazo[4,5-b]pyridin-1-yl)acetic acid] was tested. Which IC50 did it give?
**A.** 1000 to 10000 nM

**Q.** How did the IC50 turn out when `CS(=O)(=O)c1ccccc1S(=O)(=O)NC1CCC(n2c(=O)n(CC(=O)O)c3cccnc32)CC1` (centres unmarked) [Compound 104, 2-(3-(4-(2-(methylsulfonyl)phenylsulfonamido)cyclohexyl)-2-oxo-2,3-dihydro-1H-imidazo[4,5-b]pyridin-1-yl)acetic acid] was run?
**A.** 1000 to 10000 nM

**Q.** Which IC50 does the source give for `O=C(O)Cn1c(=O)n(C2CCN(S(=O)(=O)c3ccc(F)cc3Cl)CC2)c2ncccc21` [Compound 51, 2-(3-(1-(2-chloro-4-fluorophenyl-sulfonyl)piperidin-4-yl)-2-oxo-2,3-dihydro-1H-imidazo[4,5-b]pyridin-1-yl)acetic acid] here?
**A.** < 1000 nM

**Q.** With `O=C(O)Cn1c(=O)n(C2CCN(S(=O)(=O)c3ccc(Cl)cc3Cl)C2)c2ncccc21` (centres unmarked) [Compound 112, 2-(3-(1-(2,4-dichlorophenylsulfonyl)pyrrolidin-3-yl)-2-oxo-2,3-dihydro-1H-imidazo[4,5-b]pyridin-1-yl)acetic acid] as the molecule, how does the IC50 read?
**A.** 1000 to 10000 nM

**Q.** With `O=C(O)Cn1c(=O)n(C2CCN(S(=O)(=O)c3cccc4cccnc34)CC2)c2ncccc21` [Compound 49, 2-(2-oxo-3-(1-(quinolin-8-ylsulfonyl)piperidin-4-yl)-2,3-dihydro-1H-imidazo[4,5-b]pyridin-1-yl)acetic acid] as the molecule, how does the IC50 read?
**A.** < 1000 nM

**Q.** For `O=C(O)Cn1c(=O)n(C2CCN(S(=O)(=O)c3cc(F)c(F)cc3F)CC2)c2ncccc21` [Compound 92, 2-(2-oxo-3-(1-(2,4,5-trifluoro-phenylsulfonyl)piperidin-4-yl)-2,3-dihydro-1H-imidazo[4,5-b]pyridin-1-yl)acetic acid], which IC50 is on record?
**A.** 1000 to 10000 nM

**Q.** With `Cc1cc(S(=O)(=O)N2CCC(n3c(=O)n(CC(=O)O)c4cccnc43)CC2)c(C)s1` [Compound 76, 2-(3-(1-(2,5-dimethylthiophen-3-ylsulfonyl)piperidin-4-yl)-2-oxo-2,3-dihydro-1H-imidazo[4,5-b]pyridin-1-yl)acetic acid] as the molecule, how does the IC50 read?
**A.** 1000 to 10000 nM

**Q.** With `CS(=O)(=O)c1ccccc1S(=O)(=O)N1CCC(n2c(=O)n(CC(=O)O)c3cccnc32)C1` (centres unmarked) [Compound 111, 2-(3-(1-(2-(methylsulfonyl)phenylsulfonyl)pyrrolidin-3-yl)-2-oxo-2,3-dihydro-1H-imidazo[4,5-b]pyridin-1-yl)acetic acid] as the molecule, how does the IC50 read?
**A.** < 1000 nM

**Q.** For `CC(C)S(=O)(=O)N1CCC(n2c(=O)n(CC(=O)O)c3cccnc32)CC1` [Compound 52, 2-(3-(1-(isopropylsulfonyl)piperidin-4-yl)-2-oxo-2,3-dihydro-1H-imidazo[4,5-b]pyridin-1-yl)acetic acid], which IC50 is on record?
**A.** 1000 to 10000 nM

**Q.** How did the IC50 turn out when `CS(=O)(=O)c1ccccc1S(=O)(=O)N1CCC(n2c(=O)n(CC(=O)O)c3cc(F)cnc32)CC1` [Compound 74, 2-(6-fluoro-3-(1-(2-(methylsulfonyl)phenylsulfonyl)piperidin-4-yl)-2-oxo-2,3-dihydro-1H-imidazo[4,5-b]pyridin-1-yl)acetic acid] was run?
**A.** < 1000 nM

**Q.** For `COc1ccccc1S(=O)(=O)N1CCC(n2c(=O)n(CC(=O)O)c3cccnc32)CC1` [Compound 97, 2-(3-(1-(2-methoxyphenylsulfonyl)piperidin-4-yl)-2-oxo-2,3-dihydro-1H-imidazo[4,5-b]pyridin-1-yl)acetic acid], which IC50 is on record?
**A.** 1000 to 10000 nM

**Q.** `Cc1ccc(S(=O)(=O)N2CC[C@@H](n3c(=O)n(CC(=O)O)c4cccnc43)C2)c(F)c1` [Compound 103, (R)-2-(3-(1-(2-fluoro-4-methylphenylsulfonyl)pyrrolidin-3-yl)-2-oxo-2,3-dihydro-1H-imidazo[4,5-b]pyridin-1-yl)acetic acid] was tested. Which IC50 did it give?
**A.** < 1000 nM

**Q.** With `O=C(O)Cn1c(=O)n(C2CCN(S(=O)(=O)c3ccc(Cl)c(Cl)c3)CC2)c2ncccc21` [Compound 35, 2-(3-(1-(3,4-dichlorophenyl-sulfonyl)piperidin-4-yl)-2-oxo-2,3-dihydro-1H-imidazo[4,5-b]pyridin-1-yl)acetic acid] as the molecule, how does the IC50 read?
**A.** 1000 to 10000 nM

**Q.** Which IC50 does the source give for `CS(=O)(=O)c1ccccc1S(=O)(=O)N1CC[C@@H](n2c(=O)n(CC(=O)O)c3cccnc32)C1` [Compound 100, (R)-2-(3-(1-(2-(methylsulfonyl)phenylsulfonyl)pyrrolidin-3-yl)-2-oxo-2,3-dihydro-1H-imidazo[4,5-b]pyridin-1-yl)acetic acid] here?
**A.** < 1000 nM

**Q.** Which IC50 does the source give for `CC(C)CS(=O)(=O)N1CCC(n2c(=O)n(CC(=O)O)c3cccnc32)CC1` [Compound 48, 2-(3-(1-(isobutylsulfonyl)piperidin-4-yl)-2-oxo-2,3-dihydro-1H-imidazo[4,5-b]pyridin-1-yl)acetic acid] here?
**A.** 1000 to 10000 nM

**Q.** For `CS(=O)(=O)c1ccccc1S(=O)(=O)N1CCC[C@@H](n2c(=O)n(CC(=O)O)c3cccnc32)C1` [Compound 113, (R)-2-(3-(1-(2-(methylsulfonyl)phenylsulfonyl)piperidin-3-yl)-2-oxo-2,3-dihydro-1H-imidazo[4,5-b]pyridin-1-yl)acetic acid], which IC50 is on record?
**A.** < 1000 nM

**Q.** Which IC50 does the source give for `Cc1ccnc2c1n(CC(=O)O)c(=O)n2C1CCN(S(=O)(=O)c2ccccc2S(C)(=O)=O)CC1` [Compound 117, 2-(7-methyl-3-(1-(2-(methylsulfonyl)phenylsulfonyl)piperidin-4-yl)-2-oxo-2,3-dihydro-1H-imidazo[4,5-b]pyridin-1-yl)acetic acid] here?
**A.** > 30000 nM

**Q.** For `CCOc1ccc(S(=O)(=O)N2CCC(n3c(=O)n(CC(=O)O)c4cccnc43)CC2)cc1` [Compound 99, 2-(3-(1-(4-ethoxyphenylsulfonyl)piperidin-4-yl)-2-oxo-2,3-dihydro-1H-imidazo[4,5-b]pyridin-1-yl)acetic acid], which IC50 is on record?
**A.** 1000 to 10000 nM

**Q.** For `O=C(O)Cn1c(=O)n(C2CCN(S(=O)(=O)c3cccc4cccnc34)CC2)c2ncc(F)cc21` [Compound 72, 2-(6-fluoro-2-oxo-3-(1-(quinolin-8-ylsulfonyl)piperidin-4-yl)-2,3-dihydro-1H-imidazo[4,5-b]pyridin-1-yl)acetic acid], which IC50 is on record?
**A.** 1000 to 10000 nM

**Q.** With `Cc1cc(C)c(S(=O)(=O)N2CCC(n3c(=O)n(CC(=O)O)c4cccnc43)CC2)c(C)c1` [Compound 50, 2-(3-(1-(mesitylsulfonyl)piperidin-4-yl)-2-oxo-2,3-dihydro-1H-imidazo[4,5-b]pyridin-1-yl)acetic acid] as the molecule, how does the IC50 read?
**A.** 1000 to 10000 nM

From patent US20110190336A1, “AZABENZIMIDAZOLONES” (CARA THERAPEUTICS, INC., priority 2008, published 2011)
